Assay results taken from the supplement of paper PMC10307832.

Key:
Assay in all cases: relative viability (nuclei count vs DMSO), 5 days (fraction); higher = more cells survive
HCC-44 = system: HCC-44
Procedure, shortened: (§1)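 Medians of duplicate plates are given as relative viability. That measure is the nuclei count in treated wells divided by the count in vehicle wells. Counts were taken on 4× images of lung cancer cell lines in 1536-well plates, 5 days after pin-tool dosing the day after seeding with one drug alone or a fixed anchor-drug dose plus five library-drug doses (not always all listed) in √10 steps.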

SW 1573 = system: SW 1573
Procedure, shortened: as §1

H3255 = system: H3255
Procedure, shortened: as §1

NCI-H596 = system: NCI-H596
Procedure, shortened: as §1

NCI-H1793 = system: NCI-H1793
Procedure, shortened: as §1

LU99A = system: LU99A
Procedure, shortened: as §1

COR-L23 = system: COR-L23
Procedure, shortened: as §1

LK-2 = system: LK-2
Procedure, shortened: as §1

PC-14 = system: PC-14
Procedure, shortened: as §1

NCI-H460 = system: NCI-H460
Procedure, shortened: as §1

NCI-H1650 = system: NCI-H1650
Procedure, shortened: as §1

201T = system: 201T
Procedure, shortened: as §1

NCI-H727 = system: NCI-H727
Procedure, shortened: as §1

NCI-H2347 = system: NCI-H2347
Procedure, shortened: as §1

NCI-H23 = system: NCI-H23
Procedure, shortened: as §1

NCI-H2228 = system: NCI-H2228
Procedure, shortened: as §1

LC-2-ad = system: LC-2-ad
Procedure, shortened: as §1

A-427 = system: A-427
Procedure, shortened: as §1

LCLC-97TM1 = system: LCLC-97TM1
Procedure, shortened: as §1

`Nc1ccn([C@@H]2O[C@H](CO)[C@@H](O)[C@@H]2O)c(=O)n1` [Cytarabine] + CC1(C)CCC(c2ccc(Cl)cc2)=C(CN2CCN(c3ccc(C(=O)NS(=O)(=O)c4ccc(N[C@H](CCN5CCOCC5)CSc5ccccc5)c(S(=O)(=O)C(F)(F)F)c4)cc3)CC2)C1 [Navitoclax] (partner 0.5 µM) showed a relative viability (HCC-44; first compound 0.005 µM) of 0.949, a relative viability (HCC-44; first compound 0.01581 µM) of 1.01 and a relative viability (HCC-44; first compound 0.05 µM) of 0.534. For the same molecule, the relative viability (HCC-44; first compound 0.1581 µM) was 0.563, the relative viability (HCC-44; first compound 0.5 µM) was 0.26 and the relative viability (SW 1573; first compound 0.005 µM) was 0.979. The relative viability (SW 1573; first compound 0.01581 µM) was 0.79, the relative viability (SW 1573; first compound 0.05 µM) was 0.556 and the relative viability (SW 1573; first compound 0.1581 µM) was 0.223. The relative viability (SW 1573; first compound 0.5 µM) was 0.103, the relative viability (H3255; first compound 0.005 µM) was 0.451 and the relative viability (H3255; first compound 0.01581 µM) was 0.506. It also gave a relative viability (H3255; first compound 0.05 µM) of 0.411, a relative viability (H3255; first compound 0.1581 µM) of 0.325 and a relative viability (H3255; first compound 0.5 µM) of 0.332. For the same molecule, the relative viability (NCI-H596; first compound 0.005 µM) was 0.874, the relative viability (NCI-H596; first compound 0.01581 µM) was 0.894 and the relative viability (NCI-H596; first compound 0.05 µM) was 0.611. The relative viability (NCI-H596; first compound 0.1581 µM) was 0.558, the relative viability (NCI-H596; first compound 0.5 µM) was 0.413 and the relative viability (NCI-H1793; first compound 0.005 µM) was 0.273. The relative viability (NCI-H1793; first compound 0.01581 µM) was 0.333, the relative viability (NCI-H1793; first compound 0.05 µM) was 0.271 and the relative viability (NCI-H1793; first compound 0.1581 µM) was 0.261. The relative viability (NCI-H1793; first compound 0.5 µM) was 0.244, the relative viability (LU99A; first compound 0.005 µM) was 0.906 and the relative viability (LU99A; first compound 0.01581 µM) was 0.826. It also gave a relative viability (LU99A; first compound 0.05 µM) of 0.771, a relative viability (LU99A; first compound 0.1581 µM) of 0.726 and a relative viability (LU99A; first compound 0.5 µM) of 0.56. The relative viability (COR-L23; first compound 0.005 µM) was 0.944, the relative viability (COR-L23; first compound 0.01581 µM) was 0.842 and the relative viability (COR-L23; first compound 0.05 µM) was 0.555. It also gave a relative viability (COR-L23; first compound 0.1581 µM) of 0.168, a relative viability (COR-L23; first compound 0.5 µM) of 0.129 and a relative viability (LK-2; first compound 0.005 µM) of 0.527. For the same molecule, the relative viability (LK-2; first compound 0.01581 µM) was 0.425, the relative viability (LK-2; first compound 0.05 µM) was 0.316 and the relative viability (LK-2; first compound 0.1581 µM) was 0.191. It also gave a relative viability (LK-2; first compound 0.5 µM) of 0.194, a relative viability (PC-14; first compound 0.005 µM) of 0.918 and a relative viability (PC-14; first compound 0.01581 µM) of 1.03. For the same molecule, the relative viability (PC-14; first compound 0.05 µM) was 0.803, the relative viability (PC-14; first compound 0.1581 µM) was 0.314 and the relative viability (PC-14; first compound 0.5 µM) was 0.119. For the same molecule, the relative viability (NCI-H460; first compound 0.005 µM) was 1.06, the relative viability (NCI-H460; first compound 0.01581 µM) was 1.16 and the relative viability (NCI-H460; first compound 0.05 µM) was 0.323. For the same molecule, the relative viability (NCI-H460; first compound 0.1581 µM) was 0.0167, the relative viability (NCI-H460; first compound 0.5 µM) was 0.0173 and the relative viability (NCI-H1650; first compound 0.005 µM) was 1.11. For the same molecule, the relative viability (NCI-H1650; first compound 0.01581 µM) was 1.24, the relative viability (NCI-H1650; first compound 0.05 µM) was 0.616 and the relative viability (NCI-H1650; first compound 0.1581 µM) was 0.355. For the same molecule, the relative viability (NCI-H1650; first compound 0.5 µM) was 0.18, the relative viability (201T; first compound 0.005 µM) was 1.24 and the relative viability (201T; first compound 0.01581 µM) was 1.28. For the same molecule, the relative viability (201T; first compound 0.05 µM) was 1.19, the relative viability (201T; first compound 0.1581 µM) was 1.16 and the relative viability (201T; first compound 0.5 µM) was 1.14. It also gave a relative viability (NCI-H727; first compound 0.005 µM) of 0.372, a relative viability (NCI-H727; first compound 0.01581 µM) of 0.295 and a relative viability (NCI-H727; first compound 0.05 µM) of 0.238. The relative viability (NCI-H727; first compound 0.1581 µM) was 0.181, the relative viability (NCI-H727; first compound 0.5 µM) was 0.182 and the relative viability (NCI-H2347; first compound 0.005 µM) was 0.911. The relative viability (NCI-H2347; first compound 0.01581 µM) was 0.786, the relative viability (NCI-H2347; first compound 0.05 µM) was 0.635 and the relative viability (NCI-H2347; first compound 0.1581 µM) was 0.531. The relative viability (NCI-H2347; first compound 0.5 µM) was 0.449, the relative viability (NCI-H23; first compound 0.005 µM) was 0.753 and the relative viability (NCI-H23; first compound 0.01581 µM) was 0.551. For the same molecule, the relative viability (NCI-H23; first compound 0.05 µM) was 0.394, the relative viability (NCI-H23; first compound 0.1581 µM) was 0.206 and the relative viability (NCI-H23; first compound 0.5 µM) was 0.173. For the same molecule, the relative viability (NCI-H2228; first compound 0.005 µM) was 0.504, the relative viability (NCI-H2228; first compound 0.01581 µM) was 0.544 and the relative viability (NCI-H2228; first compound 0.05 µM) was 0.0741. The relative viability (NCI-H2228; first compound 0.1581 µM) was 0.0929, the relative viability (NCI-H2228; first compound 0.5 µM) was 0.0928 and the relative viability (LC-2-ad; first compound 0.005 µM) was 0.385. For the same molecule, the relative viability (LC-2-ad; first compound 0.01581 µM) was 0.328, the relative viability (LC-2-ad; first compound 0.05 µM) was 0.268 and the relative viability (LC-2-ad; first compound 0.1581 µM) was 0.2. For the same molecule, the relative viability (LC-2-ad; first compound 0.5 µM) was 0.188, the relative viability (A-427; first compound 0.005 µM) was 0.813 and the relative viability (A-427; first compound 0.01581 µM) was 0.496. For the same molecule, the relative viability (A-427; first compound 0.05 µM) was 0.257, the relative viability (A-427; first compound 0.1581 µM) was 0.154 and the relative viability (A-427; first compound 0.5 µM) was 0.16. For the same molecule, the relative viability (LCLC-97TM1; first compound 0.005 µM) was 0.401, the relative viability (LCLC-97TM1; first compound 0.01581 µM) was 0.283 and the relative viability (LCLC-97TM1; first compound 0.05 µM) was 0.171. The relative viability (LCLC-97TM1; first compound 0.1581 µM) was 0.107 and the relative viability (LCLC-97TM1; first compound 0.5 µM) was 0.115.
